Tested on: 188146-221-R-J1-PDC complex spheroid viability
Assay: Anticancer human tumor 188146-221-R-J1-PDC patient-derived colon adenocarcinoma cell line growth inhibition [POLQ]
Conditions: for IC50: curve of first compound; for viability, T/C: stronger effect = lower value
How it was run: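 Patient-derived tumour cells were co-cultured with HUVEC and mesenchymal stem cells as multicellular spheroids at 37 °C. They were treated with POLQ inhibitors (novobiocin, ART-558, RP6685) alone or combined with other agents. Top concentrations were at or near clinical Cmax (otherwise 10 microM; SN-38 at 1 microM), decreasing in half-log steps.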

[1] = second compound 0.0316 µM, first compound 0.0316 µM
[2] = second compound 0.0316 µM, first compound 0.1 µM
[3] = second compound 0.0316 µM, first compound 0.316 µM
[4] = second compound 0.0316 µM, first compound 1 µM
[5] = second compound 0.0316 µM, first compound 3.16 µM
[6] = second compound 0.0316 µM, first compound 10 µM
[7] = second compound 0.1 µM, first compound 0.0316 µM
[8] = second compound 0.1 µM, first compound 0.1 µM
[9] = second compound 0.1 µM, first compound 0.316 µM
[10] = second compound 0.1 µM, first compound 1 µM
[11] = second compound 0.1 µM, first compound 3.16 µM
[12] = second compound 0.1 µM, first compound 10 µM
[13] = second compound 0.316 µM, first compound 0.0316 µM
[14] = second compound 0.316 µM, first compound 0.1 µM
[15] = second compound 0.316 µM, first compound 0.316 µM
[16] = second compound 0.316 µM, first compound 1 µM
[17] = second compound 0.316 µM, first compound 3.16 µM
[18] = second compound 0.316 µM, first compound 10 µM
[19] = second compound 1 µM, first compound 0.0316 µM
[20] = second compound 1 µM, first compound 0.1 µM
[21] = second compound 1 µM, first compound 0.316 µM
[22] = second compound 1 µM, first compound 1 µM
[23] = second compound 1 µM, first compound 3.16 µM
[24] = second compound 1 µM, first compound 10 µM
[25] = second compound 3.16 µM, first compound 0.0316 µM
[26] = second compound 3.16 µM, first compound 0.1 µM
[27] = second compound 3.16 µM, first compound 0.316 µM
[28] = second compound 3.16 µM, first compound 1 µM
[29] = second compound 3.16 µM, first compound 3.16 µM
[30] = second compound 3.16 µM, first compound 10 µM
[31] = second compound 10 µM, first compound 0.0316 µM
[32] = second compound 10 µM, first compound 0.1 µM
[33] = second compound 10 µM, first compound 0.316 µM
[34] = second compound 10 µM, first compound 1 µM
[35] = second compound 10 µM, first compound 3.16 µM
[36] = second compound 10 µM, first compound 10 µM
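Also: spheroids exposed to compounds for seven days.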
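For viability, T/C in this document: 100% = DMSO vehicle control viability.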

Structure (SMILES): CC(C)n1c(=O)n(C)c2cnc3cc(F)c(-c4ccc(OCCCN5CCCCC5)nc4)cc3c21 + COC1C(OC(N)=O)C(O)C(Oc2ccc3c(O)c(NC(=O)c4ccc(O)c(CC=C(C)C)c4)c(=O)oc3c2C)OC1(C)C
- IC50 (second compound 0.0316 µM): > 10 µM
- IC50 (second compound 0.1 µM): > 10 µM
- IC50 (second compound 0.316 µM): > 10 µM
- IC50 (second compound 1 µM): > 10 µM
- IC50 (second compound 3.16 µM): > 10 µM
- IC50 (second compound 10 µM): > 10 µM
- viability, T/C [1]: 103%
- viability, T/C [2]: 105%
- viability, T/C [3]: 101%
- viability, T/C [4]: 97.6%
- viability, T/C [5]: 94.6%
- viability, T/C [6]: 82.9%
- viability, T/C [7]: 103%
- viability, T/C [8]: 95.8%
- viability, T/C [9]: 106%
- viability, T/C [10]: 98%
- viability, T/C [11]: 93.3%
- viability, T/C [12]: 82%
- viability, T/C [13]: 99.6%
- viability, T/C [14]: 104%
- viability, T/C [15]: 94.7%
- viability, T/C [16]: 89.8%
- viability, T/C [17]: 81.3%
- viability, T/C [18]: 96.2%
- viability, T/C [19]: 96.8%
- viability, T/C [20]: 101%
- viability, T/C [21]: 103%
- viability, T/C [22]: 102%
- viability, T/C [23]: 102%
- viability, T/C [24]: 86.8%
- viability, T/C [25]: 98.8%
- viability, T/C [26]: 101%
- viability, T/C [27]: 93.4%
- viability, T/C [28]: 96.1%
- viability, T/C [29]: 108%
- viability, T/C [30]: 88.7%
- viability, T/C [31]: 107%
- viability, T/C [32]: 101%
- viability, T/C [33]: 109%
- viability, T/C [34]: 93.7%
- viability, T/C [35]: 113%
- viability, T/C [36]: 90.9%

Structure (SMILES): CC1COCCN1c1cc(C2(S(C)(=N)=O)CC2)nc(-c2ccnc3[nH]ccc23)n1 (centres undefined) + COC1C(OC(N)=O)C(O)C(Oc2ccc3c(O)c(NC(=O)c4ccc(O)c(CC=C(C)C)c4)c(=O)oc3c2C)OC1(C)C
- IC50 (second compound 0.0316 µM): 4.2 µM
- IC50 (second compound 0.1 µM): 4.04 µM
- IC50 (second compound 0.316 µM): 4.05 µM
- IC50 (second compound 1 µM): 4.53 µM
- IC50 (second compound 3.16 µM): 3.45 µM
- IC50 (second compound 10 µM): 3.16 µM
- viability, T/C [1]: 102%
- viability, T/C [2]: 95.8%
- viability, T/C [3]: 98.7%
- viability, T/C [4]: 94.2%
- viability, T/C [5]: 58.6%
- viability, T/C [6]: 23.6%
- viability, T/C [7]: 114%
- viability, T/C [8]: 100%
- viability, T/C [9]: 90.5%
- viability, T/C [10]: 72.5%
- viability, T/C [11]: 62.2%
- viability, T/C [12]: 26.8%
- viability, T/C [13]: 96.2%
- viability, T/C [14]: 97.3%
- viability, T/C [15]: 94.7%
- viability, T/C [16]: 84.8%
- viability, T/C [17]: 56.4%
- viability, T/C [18]: 27%
- viability, T/C [19]: 97.1%
- viability, T/C [20]: 104%
- viability, T/C [21]: 88.6%
- viability, T/C [22]: 87.1%
- viability, T/C [23]: 61.2%
- viability, T/C [24]: 23.9%
- viability, T/C [25]: 101%
- viability, T/C [26]: 100%
- viability, T/C [27]: 84.2%
- viability, T/C [28]: 69.4%
- viability, T/C [29]: 54%
- viability, T/C [30]: 26.8%
- viability, T/C [31]: 102%
- viability, T/C [32]: 88.8%
- viability, T/C [33]: 103%
- viability, T/C [34]: 74.5%
- viability, T/C [35]: 51.9%
- viability, T/C [36]: 24%
